Our source for the residual activity and inhibition values is ChEMBL document CHEMBL4507293 (2021).

Assay [1] addresses Phosphatidylinositol 5-phosphate 4-kinase type-2 gamma (Homo sapiens) (UniProt Q8TBX8). The note with it: Compound concentration 100.0 nM.
Assay [2] has as its target Endothelin-1 receptor (Homo sapiens) (UniProt P25101). The settings on record: Compound concentration 10.0 uM.
In assay [3] the target is T1, Alpha-2B adrenergic receptor (Homo sapiens) (UniProt P18089).
T1 sequence (whole entry): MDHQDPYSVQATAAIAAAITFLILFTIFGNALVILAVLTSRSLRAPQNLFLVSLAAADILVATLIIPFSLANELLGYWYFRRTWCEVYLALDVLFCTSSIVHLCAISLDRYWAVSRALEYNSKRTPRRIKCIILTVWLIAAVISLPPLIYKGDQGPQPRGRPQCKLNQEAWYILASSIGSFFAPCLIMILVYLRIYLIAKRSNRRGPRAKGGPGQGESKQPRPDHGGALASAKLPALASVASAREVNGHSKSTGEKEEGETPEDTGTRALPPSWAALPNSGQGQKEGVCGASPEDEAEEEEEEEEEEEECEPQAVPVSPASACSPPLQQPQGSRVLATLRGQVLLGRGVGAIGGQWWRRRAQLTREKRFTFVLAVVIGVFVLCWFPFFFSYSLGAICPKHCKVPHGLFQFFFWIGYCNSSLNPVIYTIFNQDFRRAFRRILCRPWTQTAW
The note with it: Compound concentration 10.0 uM.

Phosphatidylinositol 5-phosphate 4-kinase type-2 gamma (Homo sapiens), sequence (Q8TBX8 whole entry): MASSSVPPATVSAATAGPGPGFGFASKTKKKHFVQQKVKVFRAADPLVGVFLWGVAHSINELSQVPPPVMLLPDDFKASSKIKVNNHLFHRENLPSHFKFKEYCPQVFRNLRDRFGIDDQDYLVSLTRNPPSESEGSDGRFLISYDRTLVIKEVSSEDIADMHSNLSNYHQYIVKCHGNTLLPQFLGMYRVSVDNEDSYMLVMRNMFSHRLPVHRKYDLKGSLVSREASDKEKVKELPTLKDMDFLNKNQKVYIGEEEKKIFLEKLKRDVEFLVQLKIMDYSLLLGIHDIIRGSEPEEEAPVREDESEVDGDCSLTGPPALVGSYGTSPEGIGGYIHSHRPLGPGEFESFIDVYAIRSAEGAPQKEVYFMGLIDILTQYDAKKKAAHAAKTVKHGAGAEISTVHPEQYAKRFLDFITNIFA
Endothelin-1 receptor (Homo sapiens), sequence (P25101 whole entry): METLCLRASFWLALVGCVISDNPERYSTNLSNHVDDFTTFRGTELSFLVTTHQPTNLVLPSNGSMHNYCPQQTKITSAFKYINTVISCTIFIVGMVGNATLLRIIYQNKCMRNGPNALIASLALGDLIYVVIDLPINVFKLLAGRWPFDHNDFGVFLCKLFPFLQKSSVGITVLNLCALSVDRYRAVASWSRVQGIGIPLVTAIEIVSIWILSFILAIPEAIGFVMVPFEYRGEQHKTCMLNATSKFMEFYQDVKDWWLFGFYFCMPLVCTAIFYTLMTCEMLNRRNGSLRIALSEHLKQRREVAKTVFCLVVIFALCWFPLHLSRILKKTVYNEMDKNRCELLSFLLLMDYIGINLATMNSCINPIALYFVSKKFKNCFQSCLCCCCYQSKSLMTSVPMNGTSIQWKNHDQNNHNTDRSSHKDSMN

Usually residual activity stands for what remains of the control signal, in per cent. Take `CC(C)CC(=O)N1CCc2nc(-c3ccc(Br)cc3)nc(N(C)Cc3ccccc3)c2C1` [THPP-1-NC]: the residual activity in assay [1] is 96%.
Usually inhibition stands for the share of the control response that was lost under treatment. Consider `COCCOc1nc(-c2ccc(Cl)nc2)nc2c1CN(C(=O)c1ncn3ccccc13)CC2` [THPP-1], for which the inhibition in assay [2] and in assay [3] was 1% throughout.
